According to patent US10316017B2, “COT modulators and methods of use thereof” (Gilead Sciences, Inc., priority 2015, dated 2019):

Legend:
[1] = tested on: TNFα production in LPS-stimulated human monocytes; assay: Cot Monocyte TNFα Cell Based Assay; settings: Homo sapiens, Monocyte, TNFα in LPS-stimulated human monocytes; read-out: EC50 TNF
Procedure, shortened: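 TNFα release quantified by two-antibody TR-FRET, normalised to unstimulated (0%) and LPS-stimulated (100%) wells. Cells got a 1 h compound exposure at 37° C in 0.5% DMSO before 4 h challenge with 50 pg/ml LPS, at 5,000 cells/well.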

[2] = biological target: T1, human Cot catalytic domain (30-397 amino acids) (Homo sapiens, UniProt P41279); assay: High Throughput Cot Biochemical Assay (KinEASE TR-FRET); settings: Cot KinEASE TR-FRET (HTRF) biochemical assay, 400 μM ATP; read-out: IC50 HTRF
T1 construct: Purified recombinant human Cot catalytic domain (30-397 amino acids) was purchased from Cama Biosciences; purchased Cama Biosciences (so in the source)
Procedure, shortened: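 TR-FRET (KinEASE) read-out: Eu-labelled phospho-specific antibody binds XL665-tagged STK3 peptide (1 μM) phosphorylated by 5 nM human Cot kinase domain (residues 30-397). Reaction at 400 μM ATP, pH 7.0 MOPS buffer with 10 mM MgOAc, 1 mM DTT and 0.1% DMSO.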

T1 sequence (P41279 30-397): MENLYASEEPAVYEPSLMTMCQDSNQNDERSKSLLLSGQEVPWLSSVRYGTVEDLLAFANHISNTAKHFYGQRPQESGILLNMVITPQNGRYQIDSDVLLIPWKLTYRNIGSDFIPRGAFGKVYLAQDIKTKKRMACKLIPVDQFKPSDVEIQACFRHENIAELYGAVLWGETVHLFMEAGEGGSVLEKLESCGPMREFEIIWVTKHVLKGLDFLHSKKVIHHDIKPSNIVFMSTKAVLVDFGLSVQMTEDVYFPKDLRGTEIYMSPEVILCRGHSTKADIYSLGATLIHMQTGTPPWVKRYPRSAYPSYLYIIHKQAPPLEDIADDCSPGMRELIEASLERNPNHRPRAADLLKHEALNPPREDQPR

EC50 [1] [µM]	IC50 [2] [µM]	SMILES
0.229	0.012	[2H][C@](Nc1cc(Cl)c2ncc(C#N)c(NCC3(C(F)F)CCC3)c2c1)(c1ccc(F)cc1)c1cn(C2CC2)nn1 [Example 198]
0.395	0.021	[2H][C@](Nc1cc(Cl)c2ncc(C#N)c(NCC3(C)CC(F)(F)C3)c2c1)(c1ccc(F)cc1)c1cn(C2CC2)nn1 [Example 199, (S)-8-chloro-6-(((1-cyclopropyl-1H-1,2,3-triazol-4-yl)(4-fluorophenyl)methyl-d)amino)-4-(((3,3-difluoro-1-methylcyclobutyl)methyl)amino) quinoline-3-carbonitrile]
7.58	0.244	[2H][C@](Nc1cc(Cl)c2ncc(C#N)c(NC3CS(=O)(=O)C3)c2c1)(c1ccc(F)cc1)c1cn(C2CC2)nn1 [Example 200, (S)-8-chloro-6-(((1-cyclopropyl-1H-1,2,3-triazol-4-yl)(4-fluorophenyl)methyl-d)amino)-4-((1,1-dioxidothietan-3-yl)amino)quinoline-3-carbonitrile]
2.54	0.251	[2H][C@](Nc1cc(Cl)c2ncc(C#N)c(NC3COC3)c2c1)(c1ccc(F)cc1)c1cn(C2CC2)nn1 [Example 201, (S)-8-chloro-6-(((1-cyclopropyl-1H-1,2,3-triazol-4-yl)(4-fluorophenyl)methyl-d)amino)-4-(oxetan-3-ylamino) quinoline-3-carbonitrile]
0.044	0.002	[2H][C@](Nc1cc(C#N)c2ncc(C#N)c(N[C@H](CC#N)c3ccccc3)c2c1)(c1ccc(F)cc1)c1cn(C2CC2)nn1 [Example 202, 4-(((R)-2-cyano-1-phenylethyl)amino)-6-(((S)-(1-cyclopropyl-1H-1,2,3-triazol-4-yl)(4-fluorophenyl)methyl-d)amino)quinoline-3,8-dicarbonitrile]
0.608	0.038	[2H][C@](Nc1cc(Cl)c2ncc(C#N)c(NCC3(C(F)F)CC3)c2c1)(c1ccc(F)cc1)c1cn(C2CC2)nn1 [Example 203, (S)-8-chloro-6-(((1-cyclopropyl-1H-1,2,3-triazol-4-yl)(4-fluorophenyl)methyl-d)amino)-4-(((1-(difluoromethyl)cyclopropyl)methyl)amino) quinoline-3-carbonitrile]
1.06	0.097	[2H][C@](Nc1cc(Cl)c2ncc(C#N)c(NC3CC(F)(F)C3)c2c1)(c1ccc(F)cc1)c1cn(C2CC2)nn1 [Example 204, (S)-8-chloro-6-(((1-cyclopropyl-1H-1,2,3-triazol-4-yl)(4-fluorophenyl)methyl-d)amino)-4-((3,3-difluorocyclobutyl)amino)quinoline-3-carbonitrile]
0.873	0.038	[2H][C@](Nc1cc(Cl)c2ncc(C#N)c(NC3CC(C)(C)C3)c2c1)(c1ccc(F)cc1)c1cn(C2CC2)nn1 [Example 205, (S)-8-chloro-6-(((1-cyclopropyl-1H-1,2,3-triazol-4-yl)(4-fluorophenyl)methyl-d)amino)-4-((3,3-dimethylcyclobutyl)amino)quinoline-3-carbonitrile]
0.547	0.052	[2H][C@](Nc1cc(Cl)c2ncc(C#N)c(Nc3cccc(Cl)c3Cl)c2c1)(c1ccc(F)cc1)c1cn(C2CC2)nn1 [Example 206, (S)-8-chloro-6-(((1-cyclopropyl-1H-1,2,3-triazol-4-yl)(4-fluorophenyl)methyl-d)amino)-4-((2,3-dichlorophenyl)amino)quinoline-3-carbonitrile]
0.305	0.017	CC(C)(C)CNc1c(C#N)cnc2c(Cl)cc(N[C@H](c3cn(C4CC4)nn3)c3ccc(F)cc3Cl)cc12 [Example 207, (S)-8-chloro-6-(((2-chloro-4-fluorophenyl) (1-cyclopropyl-1H-1,2,3-triazol-4-yl)methyl)amino)-4-(neopentylamino) quinoline-3-carbonitrile]
0.083	0.003	[2H][C@](Nc1cc(C#N)c2ncc(C#N)c(N[C@H](CC)c3ccccc3)c2c1)(c1ccc(F)cc1)c1cn(C)nn1 [Example 208, 6-(((S)-(4-fluorophenyl)(1-methyl-1H-1,2,3-triazol-4-yl)methyl-d)amino)-4-(((R)-1-phenylpropyl)amino) quinoline-3,8-dicarbonitrile]
0.083	0.003	[2H][C@](Nc1cc(C#N)c2ncc(C#N)c(NCC(C)(C)C)c2c1)(c1ccc(F)cc1)c1cn(C)nn1 [Example 209, (S)-6-(((4-fluorophenyl)(1-methyl-1H-1,2,3-triazol-4-yl)methyl-d)amino)-4-(neopentylamino) quinoline-3,8-dicarbonitrile]
0.243	0.006	CC[C@@H](Nc1c(C#N)cnc2c(C#N)cc(N[C@H](c3cn(C4CC4)nn3)c3ccccc3Cl)cc12)c1ccccc1 [Example 210, 6-(((S)-(2-chlorophenyl)(1-cyclopropyl-1H-1,2,3-triazol-4-yl)methyl)amino)-4-(((R)-1-phenylpropyl)amino) quinoline-3,8-dicarbonitrile]
0.173	0.006	CC(C)(C)CNc1c(C#N)cnc2c(C#N)cc(N[C@H](c3cn(C4CC4)nn3)c3ccccc3Cl)cc12 [Example 211, (S)-6-(((2-chlorophenyl)(1-cyclopropyl-1H-1,2,3-triazol-4-yl)methyl)amino)-4-(neopentylamino) quinoline-3,8-dicarbonitrile]
2.18	0.169	[2H][C@](Nc1cc(Cl)c2ncc(C#N)c(NC3(C)CC(F)(F)C3)c2c1)(c1ccc(F)cc1)c1cn(C2CC2)nn1 [Example 212, (S)-8-chloro-6-(((1-cyclopropyl-1H-1,2,3-triazol-4-yl)(4-fluorophenyl)methyl-d)amino)-4-((3,3-difluoro-1-methylcyclobutyl)amino) quinoline-3-carbonitrile]
0.407	0.024	[2H][C@](Nc1cc(Cl)c2ncc(C#N)c(NC(C)(C)C(C)C)c2c1)(c1ccc(F)cc1)c1cn(C2CC2)nn1 [Example 213, (S)-8-chloro-6-(((1-cyclopropyl-1H-1,2,3-triazol-4-yl)(4-fluorophenyl)methyl-d)amino)-4-((2,3-dimethylbutan-2-yl)amino)quinoline-3-carbonitrile]
4.22	0.151	[2H][C@](Nc1cc(Cl)c2ncc(C#N)c(NC3(C)COC3)c2c1)(c1ccc(F)cc1)c1cn(C2CC2)nn1 [Example 214, (S)-8-chloro-6-(((1-cyclopropyl-1H-1,2,3-triazol-4-yl)(4-fluorophenyl)methyl-d)amino)-4-((3-methyloxetan-3-yl)amino)quinoline-3-carbonitrile]
2.89	0.119	[2H][C@](Nc1cc(Cl)c2ncc(C#N)c(NC3CCC3)c2c1)(c1ccc(F)cc1)c1cn(C2CC2)nn1 [Example 215, (S)-8-chloro-4-(cyclobutylamino)-6-(((1-cyclopropyl-1H-1,2,3-triazol-4-yl)(4-fluorophenyl)methyl-d)amino)quinoline-3-carbonitrile]
5.72	0.492	[2H][C@](Nc1cc(Cl)c2ncc(C#N)c(NC3(CC)CC3)c2c1)(c1ccc(F)cc1)c1cn(C2CC2)nn1 [Example 216, (S)-8-chloro-6-(((1-cyclopropyl-1H-1,2,3-triazol-4-yl)(4-fluorophenyl)methyl-d)amino)-4-((1-ethylcyclopropyl)amino)quinoline-3-carbonitrile]
3.58	0.327	[2H][C@](Nc1cc(Cl)c2ncc(C#N)c(NC3(C#N)CC3)c2c1)(c1ccc(F)cc1)c1cn(C2CC2)nn1 [Example 217, (S)-8-chloro-4-((1-cyanocyclopropyl)amino)-6-(((1-cyclopropyl-1H-1,2,3-triazol-4-yl)(4-fluorophenyl)methyl-d)amino)quinoline-3-carbonitrile]
5.39	0.432	[2H][C@](Nc1cc(Cl)c2ncc(C#N)c(NC3(CC)CCC3)c2c1)(c1ccc(F)cc1)c1cn(C2CC2)nn1 [Example 218, (S)-8-chloro-6-(((1-cyclopropyl-1H-1,2,3-triazol-4-yl)(4-fluorophenyl)methyl-d)amino)-4-((1-ethylcyclobutyl)amino)quinoline-3-carbonitrile]
4.93	0.534	[2H][C@](Nc1cc(Cl)c2ncc(C#N)c(NC3(C)CCC3)c2c1)(c1ccc(F)cc1)c1cn(C2CC2)nn1 [Example 219, (S)-8-chloro-6-(((1-cyclopropyl-1H-1,2,3-triazol-4-yl)(4-fluorophenyl)methyl-d)amino)-4-((1-methylcyclobutyl)amino)quinoline-3-carbonitrile]
1.62	0.296	[2H][C@](Nc1cc(Cl)c2ncc(C#N)c(NC3CC3)c2c1)(c1ccc(F)cc1)c1cn(C2CC2)nn1 [Example 220, (S)-8-chloro-6-(((1-cyclopropyl-1H-1,2,3-triazol-4-yl)(4-fluorophenyl)methyl-d)amino)-4-(cyclopropylamino)quinoline-3-carbonitrile]
2.52	0.244	[2H][C@](Nc1cc(C)c2ncc(C#N)c(N[C@H](CC)c3ccccc3)c2c1)(c1ccc(F)cc1)c1cn(C2CC2)nn1 [Example 221, 6-(((S)-(1-cyclopropyl-1H-1,2,3-triazol-4-yl)(4-fluorophenyl)methyl-d)amino)-8-methyl-4-(((R)-1-phenylpropyl)amino)quinoline-3-carbonitrile]
